According to patent US6569843B1, “Steroidal sapogenins for the control of coccidiosis in animals” (priority 1999, dated 2003):
“And” between values parts separate entries of the source, which are not always exact repeats. Equal entries are not always repeated.

Tests used:
Assay type in all cases: in vivo
[1] = system: mixture of E. acervulina, E. maxima and E. tenella; assay: 8 day coccidial challenge study in broiler chicks, mortality, weight gain, feed efficiency (Example 4)
E. maxima [2] = assay: 8 day coccidial challenge study, middle lesion score (Example 4); conditions: day 8
E. acervulina [3] = assay: 8 day coccidial challenge study, upper lesion score (Example 4); conditions: day 8
E. tenella [4] = assay: 8 day coccidial challenge study, cecal lesion score (Example 4); conditions: day 8
E. maxima [5] = assay: 13 day coccidial challenge study, middle intestinal lesion score (Example 3); conditions: day 13
Description: (§1) Birds were fed a standard corn soybean meal diet and water ad libitum. Birds were placed in 4 foot by 5 foot pens at the rate of 50 birds per pen. On day 6 all birds, except the negative control, were orally challenged with an inoculum comprised of a mixture of E. acervulina, E. maxima and E. tenella. Since each of these three specie of Eimeria produce intestinal lesions in distinctly different regions of the intestinal their effects can be partitioned when scoring the birds. On day 13 all birds were sacrificed by cervical dislocation and the intestines scored for coccidial lesions by the standard Johnson and Reid method.

E. acervulina [6] = assay: 13 day coccidial challenge study, upper intestinal lesion score (Example 3); conditions: day 13
Description: as §1

[7] = system: mixture of E. acervulina, E. maxima and E. tenella; assay: 13 day coccidial challenge study in broiler chicks, weight and feed conversion (Example 3)
Description: as §1

E. tenella [8] = assay: 13 day coccidial challenge study, cecal lesion score (Example 3); conditions: day 13
Description: as §1

[9] = system: mixed culture of E. acervulina, E. maxima and E. tenella; assay: 14 day coccidial challenge study, steroidal sapogenin and antibiotic compatibility in chicks (Example 5); conditions: SS at 3.3 ppm where included, antibiotic doses not given; for Lesion Scores, Cecal / Lesion Scores, Middle / Lesion Scores, Upper: day 14

## CO[C@@H]1[C@@H](OC)[C@H](C)[C@@](O)(CC(=O)O)O[C@H]1[C@H](C)[C@H]1O[C@@]2(CC[C@@](C)([C@H]3CC[C@@](C)([C@@H]4O[C@@H]([C@H]5O[C@](C)(O)[C@H](C)C[C@@H]5C)C[C@@H]4O[C@@H]4C[C@H](OC)[C@@H](OC)[C@H](C)O4)O3)O2)C[C@H](O)[C@H]1C [Maduramicin]
[1]; 5 ppm, two different sources
  Feed/Gain: 1.8503 cd and 1.8463 cd
  Mortality, %: 6.67 a % and 0 a %
  Weight Gain, gm: 266.67 d gm and 269.33 d gm
E. maxima [2]; 5 ppm, two different sources
  Lesion Scores, Middle, E. maxima: 2.2667 b and 2.3000 b
E. acervulina [3]; 5 ppm, two different sources
  Lesion Scores, Upper, E. acervulina: 2.1000 b and 2.3667 b
E. tenella [4]; 5 ppm, two different sources
  Lesion Scores, Cecal, E. tenella: 2.6000 bc and 2.3333 bc

## CC[C@@]1([C@@H]2O[C@@H]([C@H]3O[C@@](O)(CO)[C@H](C)C[C@@H]3C)C[C@@H]2C)CC[C@H]([C@]2(C)CC[C@]3(C[C@H](O)[C@@H](C)[C@@H]([C@@H](C)[C@@H](OC)[C@H](C)C(=O)O)O3)O2)O1 [Monensin]
[1]; 90 gm/ton
  Feed/Gain: 1.9033 cd
  Mortality, %: 3.33 a %
  Weight Gain, gm: 258.67 d gm
E. maxima [2]; 90 gm/ton
  Lesion Scores, Middle, E. maxima: 2.4333 bc
E. acervulina [3]; 90 gm/ton
  Lesion Scores, Upper, E. acervulina: 1.9667 b
E. maxima [5]; 100 g/ton
  Average intestinal lesion score, Middle, maxima: 1.58
E. acervulina [6]; 100 g/ton
  Average intestinal lesion score, Upper, acervulina: 1.40
[7]; 100 g/ton
  Feed/Gain: 1.843
  Weight, gm (average bird weight): 233.0 gm
E. tenella [8]; 100 g/ton
  Average intestinal lesion score, Cecal, tenella: 1.64
E. tenella [4]; 90 gm/ton
  Lesion Scores, Cecal, E. tenella: 2.9667 bc

## CC[C@@H](C(=O)[C@@H](C)[C@@H](O)[C@H](C)[C@@H]1O[C@@H]([C@@H](CC)C(=O)O)CC[C@@H]1C)[C@H]1O[C@]2(C=C[C@@H](O)[C@]3(CC[C@@](C)([C@H]4CC[C@](O)(CC)[C@H](C)O4)O3)O2)[C@H](C)C[C@@H]1C [Salinomycin]
[1]; 60 gm/ton
  Feed/Gain: 1.8473 cd
  Mortality, %: 6.67 a %
  Weight Gain, gm: 269.67 d gm
E. maxima [2]; 60 gm/ton
  Lesion Scores, Middle, E. maxima: 2.9000 bc
E. acervulina [3]; 60 gm/ton
  Lesion Scores, Upper, E. acervulina: 2.1333 b
E. maxima [5]; 60 g/ton
  Average intestinal lesion score, Middle, maxima: 1.22
E. acervulina [6]; 60 g/ton
  Average intestinal lesion score, Upper, acervulina: 0.76
[7]; 60 g/ton
  Feed/Gain: 1.624
  Weight, gm (average bird weight): 246.3 gm
E. tenella [8]; 60 g/ton
  Average intestinal lesion score, Cecal, tenella: 0.68
E. tenella [4]; 60 gm/ton
  Lesion Scores, Cecal, E. tenella: 2.9000 bc

## Bacitracin Zinc
[9]
  Feed/Gain: 1.833
  Weight, gm: 259.7 gm
  Lesion Scores, Cecal: 1.50
  Lesion Scores, Middle: 2.08
  Lesion Scores, Upper: 1.50

## Virginiamycin
[9]
  Feed/Gain: 1.891
  Weight, gm: 256.3 gm
  Lesion Scores, Cecal: 1.17
  Lesion Scores, Middle: 1.58
  Lesion Scores, Upper: 1.17
